Results published in ChEMBL document CHEMBL1132363, “Asymmetric synthesis and antiviral activities of L-carbocyclic 2', 3'-didehydro-2',3'-dideoxy and 2',3'-dideoxy nucleosides” (J Med Chem, 1999).

Columns and labels:
[1] = The compound was tested in vitro for the anti-HIV activity against peripheral blood mononuclear (PBM)cells; type: functional; conditions: Homo sapiens
Homo sapiens [2] = species: Homo sapiens; experiment: The compound was tested in vitro for the anti-HBV activity against 2.2.15 cells; type: functional, cell-based; conditions: HepG2 2.2.15
CCRF-CEM = experiment: The compound was tested for the cytotoxicity against CEM cells; type: functional, cell-based; conditions: Homo sapiens
Vero = experiment: The compound was tested for the cytotoxicity against Vero cells; type: functional, cell-based; conditions: Chlorocebus sabaeus
[3] = The compound was tested for the cytotoxicity against peripheral blood mononuclear (PBM)cells; type: functional, cell-based; conditions: Homo sapiens
Homo sapiens [4] = species: Homo sapiens; experiment: The compound was tested in vitro for the anti-HBV activity in 2.2.15 cells; type: functional, cell-based; conditions: HepG2 2.2.15
[5] = The compound was tested for the cytotoxicity against peripheral blood mononuclear (PBM) cells; type: functional, cell-based; conditions: Homo sapiens
[6] = The compound was tested in vitro for the anti-HIV activity in peripheral blood mononuclear (PBM) cells; type: functional; conditions: Homo sapiens

For `Nc1ncnc2c1ncn2[C@@H]1C=C[C@H](CO)C1`, the EC50 [1] was 2.4 µM, the EC50 (Homo sapiens [2]) was 0.9 µM and the IC50 (CCRF-CEM) was > 100 µM. For the same compound, the IC50 (Vero) was > 100 µM and the IC50 [3] was > 100 µM.
In the case of `O=c1ccn(C2CCC(CO)C2)c(=O)[nH]1` (stereo not drawn), the EC50 [1] is reported as > 100 µM, the EC50 (Homo sapiens [2]) is reported as > 10 µM and the IC50 (CCRF-CEM) is reported as > 100 µM. For the same compound, the IC50 (Vero) was > 100 µM and the IC50 [3] was > 100 µM.
With `O=c1ccn([C@@H]2C=C[C@H](CO)C2)c(=O)[nH]1` the EC50 [1] was > 100 µM, the EC50 (Homo sapiens [2]) was > 10 µM and the IC50 (CCRF-CEM) was > 100 µM. The IC50 (Vero) was > 100 µM and the IC50 [3] was > 100 µM.
For `OC[C@H]1C=C[C@@H](n2cnc3c(S)ncnc32)C1`, the IC50 (CCRF-CEM) was > 100 µM, the EC50 (Homo sapiens [4]) was > 10 µM and the IC50 [5] was > 100 µM. For the same compound, the EC50 [6] was > 100 µM and the IC50 (Vero) was > 100 µM.
With `Nc1ncnc2c1ncn2C1CCC(CO)C1` (stereo not drawn) the EC50 [1] was 27 µM, the EC50 (Homo sapiens [2]) was > 50 µM and the IC50 (CCRF-CEM) was > 100 µM. The IC50 (Vero) was > 100 µM and the IC50 [3] was > 100 µM.
In the case of `Nc1ccn([C@@H]2C=C[C@H](CO)C2)c(=O)n1`, the EC50 [1] is reported as 38.8 µM, the EC90 [1] is reported as 65.9 µM and the EC50 (Homo sapiens [2]) is reported as > 10 µM. The IC50 (CCRF-CEM) was > 100 µM, the IC50 (Vero) was > 100 µM and the IC50 [3] was > 100 µM.
In the case of `OC[C@H]1CC[C@@H](n2cnc3c(O)ncnc32)C1`, the IC50 (CCRF-CEM) is reported as > 100 µM, the EC50 (Homo sapiens [4]) is reported as > 10 µM and the EC50 [6] is reported as > 100 µM. For the same compound, the IC50 (Vero) was > 100 µM and the IC50 [3] was > 100 µM.
With `Cc1cn(C2CCC(CO)C2)c(=O)[nH]c1=O` (stereo not drawn) the EC50 [1] was > 100 µM, the EC50 (Homo sapiens [2]) was > 10 µM and the IC50 (CCRF-CEM) was > 100 µM. The IC50 (Vero) was 171 µM and the IC50 [3] was > 100 µM.
In the case of `OC[C@H]1C=C[C@@H](n2cnc3c(O)ncnc32)C1`, the EC50 [1] is reported as > 100 µM, the EC50 (Homo sapiens [2]) is reported as > 10 µM and the IC50 (CCRF-CEM) is reported as > 100 µM. For the same compound, the IC50 (Vero) was > 100 µM and the IC50 [3] was > 100 µM.
In the case of `Nc1nc(O)c2ncn([C@@H]3C=C[C@H](CO)C3)c2n1`, the EC50 [1] is reported as > 200 µM and the EC50 (Homo sapiens [2]) is reported as > 200 µM.
In the case of `COC1O[C@H]2[C@H](COC(C)(C)C)C[C@H](n3cnc4c(Cl)ncnc43)[C@H]2O1` (stereo partly drawn), the EC50 [1] is reported as > 100 µM, the EC50 (Homo sapiens [2]) is reported as > 10 µM and the IC50 (CCRF-CEM) is reported as > 100 µM. For the same compound, the IC50 (Vero) was > 100 µM and the IC50 [3] was > 100 µM.
For `Cc1cn([C@@H]2C=C[C@H](CO)C2)c(=O)[nH]c1=O`, the EC50 [1] was > 100 µM, the EC50 (Homo sapiens [2]) was > 10 µM and the IC50 (CCRF-CEM) was > 100 µM. For the same compound, the IC50 (Vero) was 49.4 µM and the IC50 [3] was 66.6 µM.
